This is an account of results in patent publication US20180348231A1, “LIGAND INDUCIBLE POLYPEPTIDE COUPLER SYSTEM” (Intrexon Corporation, priority 2015, published 2018).

“Also recorded” adds a separate entry of the source.

One experiment deals with T1, STAT1 (Homo sapiens, UniProt P42224).
T1 construct: expressed in transfected cells; host or cells: HEK293 / 293T cells
As to the kind of experiment: Split fLuc bioluminescence assay, STAT1 positive control. Type of experiment: cell-based. Particulars: Ligand − and +, FIG. 7.

Experiment [1] relates to split fLuc fused to EcR and RXR domains. As to the kind of experiment: Split firefly luciferase (fLuc) bioluminescence assay, EcR-RXR ligand inducible polypeptide coupler. Type of experiment: cell-based. The protocol: (§1) HEK293 cells were transfected with the split fLuc fused to EcR and RXR domains as follows:
(§2) A day before transfection, 10,000 cells (293T cells) were plated into each well of a 96 well plate containing 100 μl of growth medium (Dulbecco's Modified Eagle's Medium with 10% Fetal Bovine Serum) without antibiotics. Plasmids in pairs, RxR Nluc with Cluc EcR and EcR_ Nluc with Cluc_ RxR (see FIG. 8; amino acid sequences for the constructs depicted in FIG. 8 are provided as SEQ ID NOs: 87-92, respectively. SEQ ID NOs: 91 and 92 correspond to the EcR and RXR amino sequences, respectively, employed in the constructs of FIG. 8), were transfected with Lipofectamine® 2000, according to manufacturer's specifications. Briefly, individual plasmid DNA (0.2 μg) and 0.5 μl of Lipofectamine 2000® was diluted in 25.0 μl of OptiMEM® I Reduced Serum Medium and incubated for 5 minutes at room temperature, volumes were doubled for co-transfections. Diluted plasmid DNA was combined with diluted Lipofectamine® 2000 and incubated for 20 minutes at room temperature. 50 μl of the DNA/Lipofectamine® 2000 complex was added to each well of the 96 well plate. Cells were incubated at 37° C. in a 5% CO2 incubator for 24 hours, prior to addition of the activating ligand Veledimex. […]

In the next experiment the test system is EcR_Nluc+Cluc_EcR. Put plainly: Split fLuc bioluminescence assay, EcR-EcR homodimerization. Type of experiment: cell-based. Particulars: upon ligand addition, FIGS. 11 and 12. The protocol: (§3) Experiments were performed to test if nuclear receptor domains (i.e., EcR and RxR polypeptides) could be induced to homodimerize upon addition of ligand (FIGS. 11 and 12). STAT1 was used as control polypeptide since it is reported to self dimerize independent of ligand addition. Abbreviations in the figures are:
“EcR-EcR” means “EcR_Nluc+Cluc_EcR” which is a luciferase polypeptide split into two halves, such that an EcR polypeptide is fused to the N-terminus of a luciferase polypeptide fragment (EcR_Nluc) and another fragment of luciferase has an EcR polypeptide fused to its C-terminal end (Cluc_EcR); thereby activating luciferase (generation of bioluminescence) upon EcR homodimerization;

The next experiment deals with 293T cells. As to the kind of experiment: Bioluminescence assay, mock (no vector), activating ligand alone. Particulars: negative control, no split fLuc vectors; FIG. 7. Type of experiment: cell-based. The method, then:
A day before transfection, 10,000 cells (293T cells) were plated into each well of a 96 well plate containing 100 μl of growth medium (Dulbecco's Modified Eagle's Medium with 10% Fetal Bovine Serum) without antibiotics. Plasmids in pairs, RxR Nluc with Cluc EcR and EcR_ Nluc with Cluc_ RxR (see FIG. 8; amino acid sequences for the constructs depicted in FIG. 8 are provided as SEQ ID NOs: 87-92, respectively. SEQ ID NOs: 91 and 92 correspond to the EcR and RXR amino sequences, respectively, employed in the constructs of FIG. 8), were transfected with Lipofectamine® 2000, according to manufacturer's specifications. Briefly, individual plasmid DNA (0.2 μg) and 0.5 μl of Lipofectamine 2000® was diluted in 25.0 μl of OptiMEM® I Reduced Serum Medium and incubated for 5 minutes at room temperature, volumes were doubled for co-transfections. Diluted plasmid DNA was combined with diluted Lipofectamine® 2000 and incubated for 20 minutes at room temperature. 50 μl of the DNA/Lipofectamine® 2000 complex was added to each well of the 96 well plate. Cells were incubated at 37° C. in a 5% CO2 incubator for 24 hours, prior to addition of the activating ligand Veledimex.
Twenty four hours (24hrs) post-transfection, cell culture media from each well of the 96-well plate was replaced with 100 nM Veledimex activating ligand and Dimethyl sulfoxide-DMSO (negative control). […]

In another experiment the target is T2, RxR domains (Homo sapiens, UniProt P28702, A451V/A495S/C475T/D450E/E481D/K452R/K476R/K478T/K511R/N456S/P457A/Q477T/Q482E/Q483P/S455K/S458Q/S470A/T473E/T516V/V462L/Y479H).
T2 construct: expressed in transfected cells
Put plainly: Split fLuc bioluminescence assay, RxR homodimerization. Type of experiment: cell-based. Particulars: FIGS. 11 and 12. The protocol: as §3
“RxR” is Retinoid X receptor;

The target in a further experiment is T3, Cluc_RxR.
T3 construct: Expressed in transfected 293T cells
T3 chain: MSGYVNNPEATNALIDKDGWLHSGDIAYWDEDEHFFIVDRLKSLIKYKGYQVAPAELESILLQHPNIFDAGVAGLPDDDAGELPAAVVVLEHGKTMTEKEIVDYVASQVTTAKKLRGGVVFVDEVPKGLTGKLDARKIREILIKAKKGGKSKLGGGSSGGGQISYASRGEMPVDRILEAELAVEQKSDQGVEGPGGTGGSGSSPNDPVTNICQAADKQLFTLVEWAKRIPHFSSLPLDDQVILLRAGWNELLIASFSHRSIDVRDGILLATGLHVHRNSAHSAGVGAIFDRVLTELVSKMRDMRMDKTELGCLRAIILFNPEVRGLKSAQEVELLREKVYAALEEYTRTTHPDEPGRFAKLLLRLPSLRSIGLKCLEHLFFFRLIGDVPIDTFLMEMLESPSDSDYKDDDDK
As to the kind of experiment: split firefly luciferase complementation, with and without Veledimex. The method, then: as §1
as §2, with “CO₂” for “CO2”

T1 sequence (P42224 with tags, fused parts or gaps): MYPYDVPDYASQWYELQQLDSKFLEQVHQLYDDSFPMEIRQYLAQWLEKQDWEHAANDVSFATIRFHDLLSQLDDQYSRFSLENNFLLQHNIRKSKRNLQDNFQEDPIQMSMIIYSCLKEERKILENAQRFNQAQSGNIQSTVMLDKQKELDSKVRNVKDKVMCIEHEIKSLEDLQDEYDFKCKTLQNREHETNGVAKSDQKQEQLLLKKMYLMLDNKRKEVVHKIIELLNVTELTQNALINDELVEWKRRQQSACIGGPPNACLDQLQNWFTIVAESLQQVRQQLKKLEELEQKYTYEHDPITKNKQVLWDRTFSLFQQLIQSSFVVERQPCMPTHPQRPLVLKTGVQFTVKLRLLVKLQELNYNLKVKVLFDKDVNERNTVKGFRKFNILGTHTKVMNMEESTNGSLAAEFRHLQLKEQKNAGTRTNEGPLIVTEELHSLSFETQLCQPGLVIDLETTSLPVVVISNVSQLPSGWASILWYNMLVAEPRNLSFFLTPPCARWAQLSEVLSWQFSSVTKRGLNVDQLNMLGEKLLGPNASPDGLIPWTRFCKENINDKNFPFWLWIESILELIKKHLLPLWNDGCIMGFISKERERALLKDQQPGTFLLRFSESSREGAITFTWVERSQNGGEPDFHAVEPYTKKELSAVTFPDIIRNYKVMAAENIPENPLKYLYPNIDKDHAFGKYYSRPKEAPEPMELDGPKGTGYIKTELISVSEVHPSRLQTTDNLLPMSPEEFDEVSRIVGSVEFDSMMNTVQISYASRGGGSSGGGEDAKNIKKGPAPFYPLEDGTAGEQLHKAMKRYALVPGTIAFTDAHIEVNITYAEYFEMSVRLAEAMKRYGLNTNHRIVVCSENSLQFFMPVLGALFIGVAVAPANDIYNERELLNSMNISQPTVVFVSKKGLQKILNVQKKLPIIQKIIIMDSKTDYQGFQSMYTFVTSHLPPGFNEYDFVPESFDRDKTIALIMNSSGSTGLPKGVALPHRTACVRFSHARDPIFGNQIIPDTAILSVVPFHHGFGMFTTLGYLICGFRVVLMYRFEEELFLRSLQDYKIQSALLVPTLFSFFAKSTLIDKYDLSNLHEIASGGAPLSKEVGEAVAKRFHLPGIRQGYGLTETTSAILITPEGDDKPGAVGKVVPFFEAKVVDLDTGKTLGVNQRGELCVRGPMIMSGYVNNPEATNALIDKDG
T1 sequence (P42224 with tags, fused parts or gaps): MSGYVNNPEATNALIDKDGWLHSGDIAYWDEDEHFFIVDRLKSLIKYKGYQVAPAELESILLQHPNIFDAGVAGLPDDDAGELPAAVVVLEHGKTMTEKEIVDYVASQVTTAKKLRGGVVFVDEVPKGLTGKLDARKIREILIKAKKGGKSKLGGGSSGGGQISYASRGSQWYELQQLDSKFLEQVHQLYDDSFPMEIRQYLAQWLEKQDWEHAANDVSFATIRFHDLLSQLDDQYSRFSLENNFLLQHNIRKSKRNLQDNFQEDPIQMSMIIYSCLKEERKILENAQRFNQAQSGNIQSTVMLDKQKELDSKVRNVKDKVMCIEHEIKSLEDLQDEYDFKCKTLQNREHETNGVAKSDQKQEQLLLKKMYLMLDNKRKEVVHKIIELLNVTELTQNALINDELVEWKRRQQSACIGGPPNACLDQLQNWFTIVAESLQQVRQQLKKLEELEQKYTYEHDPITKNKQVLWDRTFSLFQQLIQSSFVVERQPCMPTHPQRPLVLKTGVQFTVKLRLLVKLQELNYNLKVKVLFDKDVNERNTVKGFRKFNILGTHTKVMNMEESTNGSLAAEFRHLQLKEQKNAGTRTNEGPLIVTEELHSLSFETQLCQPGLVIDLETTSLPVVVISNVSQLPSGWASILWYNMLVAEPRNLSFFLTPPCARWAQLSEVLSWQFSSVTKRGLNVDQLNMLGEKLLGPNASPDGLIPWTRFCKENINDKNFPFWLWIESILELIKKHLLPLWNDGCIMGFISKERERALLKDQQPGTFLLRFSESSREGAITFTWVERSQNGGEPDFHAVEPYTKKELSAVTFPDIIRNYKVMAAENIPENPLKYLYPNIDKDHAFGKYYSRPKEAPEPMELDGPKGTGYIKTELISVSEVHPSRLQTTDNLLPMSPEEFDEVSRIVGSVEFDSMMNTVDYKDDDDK

As to `CCC[C@@H](N(NC(=O)c1cccc(OC)c1CC)C(=O)c1cc(C)cc(C)c1)C(C)(C)C` [Veledimex], the “Signal of the positive control (STAT1 split fLuc)” value on STAT1 was “unaffected”. In experiment [1] (EcR_Nluc+Cluc_RXR, Example 2, FIGS. 11 and 12), the “RxR-EcR heterodimerization (bioluminescence)” value is given as “strongest signal (bioluminescence) was observed”. Moreover, in experiment [1] (cells transfected with split fLuc fused to EcR and RXR, 100 nM Veledimex, 6 hours after addition, FIG. 7, listed as activating ligand), the “fLuc signal (bioluminescence)” value is listed as “fLuc signal was detected; also recorded: a clear fLuc signal is generated; also recorded: drives split fLuc signal only in the presence of activating ligand”. For the same molecule, the “EcR domain homodimerization (bioluminescence)” value in the experiment on EcR_Nluc+Cluc_EcR is given as “statistically significant homodimerization of EcR domains”. The “fLuc reading, activating ligand alone” value in the experiment with 293T cells is on record as “only background readings”. For the same molecule, the “RxR domain homodimerization (bioluminescence)” value at RxR domains is given as “homodimerize independent of ligand”.

B1: RxR Nluc (other)
chain: MDYKDDDDKEMPVDRILEAELAVEQKSDQGVEGPGGTGGSGSSPNDPVTNICQAADKQLFTLVEWAKRIPHFSSLPLDDQVILLRAGWNELLIASFSHRSIDVRDGILLATGLHVHRNSAHSAGVGAIFDRVLTELVSKMRDMRMDKTELGCLRAIILFNPEVRGLKSAQEVELLREKVYAALEEYTRTTHPDEPGRFAKLLLRLPSLRSIGLKCLEHLFFFRLIGDVPIDTFLMEMLESPSDSQISYASRGGGSSGGGEDAKNIKKGPAPFYPLEDGTAGEQLHKAMKRYALVPGTIAFTDAHIEVNITYAEYFEMSVRLAEAMKRYGLNTNHRIVVCSENSLQFFMPVLGALFIGVAVAPANDIYNERELLNSMNISQPTVVFVSKKGLQKILNVQKKLPIIQKIIIMDSKTDYQGFQSMYTFVTSHLPPGFNEYDFVPESFDRDKTIALIMNSSGSTGLPKGVALPHRTACVRFSHARDPIFGNQIIPDTAILSVVPFHHGFGMFTTLGYLICGFRVVLMYRFEEELFLRSLQDYKIQSALLVPTLFSFFAKSTLIDKYDLSNLHEIASGGAPLSKEVGEAVAKRFHLPGIRQGYGLTETTSAILITPEGDDKPGAVGKVVPFFEAKVVDLDTGKTLGVNQRGELCVRGPMIMSGYVNNPEATNALIDKDG
notes: also called R×R Nluc; RXR-fLuc
Turning to B1, in the experiment with Cluc_RxR, the binding result is “binds”.
